Source: ChEMBL document CHEMBL3272271, “Folate antagonists. 13. 2,4-Diamino-6-](alpha,alpha,alpha-trifluoro-m-tolyl)thio]quinazoline and related 2,4-diamino-6-[(phenyl- and naphthyl)thio]quinazolines, a unique class of antimetabolites with extraordinary antimalarial and antibacterial effects” (J Med Chem, 1978)
≈ marks a conversion by molar mass, not a printed value. Calls of active or inactive are those of the source. No cut-off for these calls is given here.

Legend:
Plasmodium berghei [1] = test: Antimalarial activity against trophozoite-induced Plasmodium berghei infected in mouse assessed as daily dose required to suppression of 90% parasite infection administered with diet for 6 days; assay type: functional
Mus musculus [2] = test: Toxicity in Plasmodium berghei infected mouse assessed as mortality at 640 mg/kg, sc administered 72 hrs after infection measured after 2 to 5 days; assay type: organism-based; design: dose 640 mg/kg, route subcutaneous; details: in vivo
Plasmodium gallinaceum [3] = test: Antimalarial activity against sporozoite-induced Plasmodium gallinaceum infected in white leghorn chicken assessed as disease cure from parasite infection at 40 mg/kg, sc administered 72 hrs after infection; assay type: functional, organism-based; design: dose 40 mg/kg
Plasmodium berghei [4] = test: Antimalarial activity against Plasmodium berghei infected in mouse assessed as increase in mean survival days of host at 10 mg/kg, sc administered 72 hrs after infection relative to control; assay type: functional; details: route subcutaneous
Plasmodium gallinaceum [5] = test: Antimalarial activity against sporozoite-induced Plasmodium gallinaceum infected in white leghorn chicken assessed as disease cure from parasite infection at 10 mg/kg, sc administered 72 hrs after infection; assay type: functional, organism-based; design: dose 10 mg/kg
Plasmodium berghei [6] = test: Antimalarial activity against Plasmodium berghei infected in mouse assessed as increase in mean survival days of host at 20 mg/kg, sc administered 72 hrs after infection relative to control; assay type: functional; details: route subcutaneous
Plasmodium berghei [7] = test: Antimalarial activity against Plasmodium berghei infected in mouse assessed as disease cure from parasite infection at 160 mg/kg, sc administered 72 hrs after infection; assay type: functional, organism-based; design: dose 160 mg/kg
Plasmodium gallinaceum [8] = test: Antimalarial activity against sporozoite-induced Plasmodium gallinaceum infected in white leghorn chicken assessed as disease cure from parasite infection at 160 mg/kg, sc administered 72 hrs after infection; assay type: functional, organism-based; design: dose 160 mg/kg
Plasmodium berghei [9] = test: Antimalarial activity against Plasmodium berghei infected in mouse assessed as disease cure from parasite infection at 320 mg/kg, sc administered 72 hrs after infection; assay type: functional, organism-based; design: dose 320 mg/kg
Plasmodium berghei [10] = test: Antimalarial activity against Plasmodium berghei infected in mouse assessed as disease cure from parasite infection at 80 mg/kg, sc administered 72 hrs after infection; assay type: functional, organism-based; design: dose 80 mg/kg
Gallus gallus [11] = test: Toxicity in sporozoite-induced Plasmodium gallinaceum infected white leghorn chicken assessed as mortality at 320 mg/kg, sc administered 72 hrs after infection measured up to 6 days; assay type: organism-based; design: dose 320 mg/kg, route subcutaneous; details: in vivo
Plasmodium berghei [12] = test: Antimalarial activity against Plasmodium berghei infected in mouse assessed as disease cure from parasite infection at 40 mg/kg, sc administered 72 hrs after infection; assay type: functional, organism-based; design: dose 40 mg/kg
Plasmodium berghei [13] = test: Antimalarial activity against Plasmodium berghei infected in mouse assessed as increase in mean survival days of host at 5 mg/kg, sc administered 72 hrs after infection relative to control; assay type: functional; details: route subcutaneous
Plasmodium gallinaceum [14] = test: Antimalarial activity against sporozoite-induced Plasmodium gallinaceum infected in white leghorn chicken assessed as disease cure from parasite infection at 20 mg/kg, sc administered 72 hrs after infection; assay type: functional, organism-based; design: dose 20 mg/kg
Mus musculus [15] = test: Toxicity in Plasmodium berghei infected mouse assessed as mortality at 320 mg/kg, sc administered 72 hrs after infection measured after 2 to 5 days; assay type: organism-based; design: dose 320 mg/kg, route subcutaneous; details: in vivo
Plasmodium gallinaceum [16] = test: Antimalarial activity against sporozoite-induced Plasmodium gallinaceum infected in white leghorn chicken assessed as disease cure from parasite infection at 80 mg/kg, sc administered 72 hrs after infection; assay type: functional, organism-based; design: dose 80 mg/kg
Plasmodium berghei [17] = test: Antimalarial activity against Plasmodium berghei infected in mouse assessed as disease cure from parasite infection at 640 mg/kg, sc administered 72 hrs after infection; assay type: functional, organism-based; design: dose 640 mg/kg
Plasmodium berghei [18] = test: Antimalarial activity against Plasmodium berghei infected in mouse assessed as increase in mean survival days of host at 1.25 mg/kg, sc administered 72 hrs after infection relative to control; assay type: functional; details: route subcutaneous
Plasmodium berghei [19] = test: Antimalarial activity against Plasmodium berghei infected in mouse assessed as increase in mean survival days of host at 2.5 mg/kg, sc administered 72 hrs after infection relative to control; assay type: functional; details: route subcutaneous
Plasmodium gallinaceum [20] = test: Antimalarial activity against sporozoite-induced Plasmodium gallinaceum infected in white leghorn chicken assessed as disease cure from parasite infection at 320 mg/kg, sc administered 72 hrs after infection; assay type: functional, organism-based; design: dose 320 mg/kg
Plasmodium berghei [21] = test: Ratio of quinine hydrochloride SD90 to compound SD90 for trophozoite-induced Plasmodium berghei infected in mouse assessed as daily dose required to suppression of 90% parasite infection administered with diet for 6 days; assay type: functional
Gallus gallus [22] = test: Toxicity in trophozoite-induced Plasmodium gallinaceum infected white leghorn chicken assessed as mortality at 320 mg/kg, sc administered 72 hrs after infection measured after 48 hrs; assay type: organism-based; design: dose 320 mg/kg, route subcutaneous; details: in vivo
Plasmodium gallinaceum [23] = test: Antimalarial activity against trophozoite-induced Plasmodium gallinaceum infected in white leghorn chicken assessed as increase in mean survival days of host at 1.25 mg/kg, sc administered 72 hrs after infection relative to control; assay type: functional; details: route subcutaneous
Plasmodium gallinaceum [24] = test: Antimalarial activity against trophozoite-induced Plasmodium gallinaceum infected in white leghorn chicken assessed as increase in mean survival days of host at 2.5 mg/kg, sc administered 72 hrs after infection relative to control; assay type: functional; details: route subcutaneous
Plasmodium gallinaceum [25] = test: Antimalarial activity against trophozoite-induced Plasmodium gallinaceum infected in white leghorn chicken assessed as increase in mean survival days of host at 160 mg/kg, sc administered 72 hrs after infection relative to control; assay type: functional; details: route subcutaneous
Plasmodium gallinaceum [26] = test: Antimalarial activity against trophozoite-induced Plasmodium gallinaceum infected in white leghorn chicken assessed as increase in mean survival days of host at 10 mg/kg, sc administered 72 hrs after infection relative to control; assay type: functional; details: route subcutaneous
Plasmodium gallinaceum [27] = test: Antimalarial activity against trophozoite-induced Plasmodium gallinaceum infected in white leghorn chicken assessed as increase in mean survival days of host at 20 mg/kg, sc administered 72 hrs after infection relative to control; assay type: functional; details: route subcutaneous
Plasmodium gallinaceum [28] = test: Antimalarial activity against trophozoite-induced Plasmodium gallinaceum infected in white leghorn chicken assessed as increase in mean survival days of host at 80 mg/kg, sc administered 72 hrs after infection relative to control; assay type: functional; details: route subcutaneous
Plasmodium gallinaceum [29] = test: Antimalarial activity against trophozoite-induced Plasmodium gallinaceum infected in white leghorn chicken assessed as increase in mean survival days of host at 5 mg/kg, sc administered 72 hrs after infection relative to control; assay type: functional; details: route subcutaneous
Plasmodium gallinaceum [30] = test: Antimalarial activity against trophozoite-induced Plasmodium gallinaceum infected in white leghorn chicken assessed as increase in mean survival days of host at 40 mg/kg, sc administered 72 hrs after infection relative to control; assay type: functional; details: route subcutaneous
Escherichia coli = test: Antibacterial activity against Escherichia coli Vogel by gradient plate test; assay type: functional
Plasmodium berghei [31] = test: Antimalarial activity against Plasmodium berghei infected in mouse assessed as disease cure from parasite infection at 20 mg/kg, sc administered 72 hrs after infection; assay type: functional, organism-based; design: dose 20 mg/kg
Plasmodium berghei [32] = test: Antimalarial activity against chloroquine-resistant Plasmodium berghei assessed as drug resistance; assay type: functional, organism-based
Plasmodium gallinaceum [33] = test: Antimalarial activity against sporozoite-induced Plasmodium gallinaceum infected in white leghorn chicken assessed as disease cure from parasite infection at 7.5 mg/kg, sc administered 72 hrs after infection; assay type: functional, organism-based; design: dose 7.5 mg/kg
Plasmodium berghei [34] = test: Antimalarial activity against cycloguanil-resistant Plasmodium berghei assessed as drug resistance; assay type: functional, organism-based
Plasmodium gallinaceum [35] = test: Antimalarial activity against sporozoite-induced Plasmodium gallinaceum infected in white leghorn chicken assessed as disease cure from parasite infection at 240 mg/kg, sc administered 72 hrs after infection; assay type: functional, organism-based; design: dose 240 mg/kg
Plasmodium gallinaceum [36] = test: Antimalarial activity against sporozoite-induced Plasmodium gallinaceum infected in white leghorn chicken assessed as disease cure from parasite infection at 480 mg/kg, sc administered 72 hrs after infection; assay type: functional, organism-based; design: dose 480 mg/kg
Pseudomonas aeruginosa = test: Antibacterial activity against Pseudomonas aeruginosa 28 by gradient plate test; assay type: functional
Enterococcus faecalis = test: Antibacterial activity against Streptococcus faecalis MGH-2 by gradient plate test; assay type: functional
Plasmodium gallinaceum [37] = test: Antimalarial activity against sporozoite-induced Plasmodium gallinaceum infected in white leghorn chicken assessed as disease cure from parasite infection at 15 mg/kg, sc administered 72 hrs after infection; assay type: functional, organism-based; design: dose 15 mg/kg
Plasmodium gallinaceum [38] = test: Antimalarial activity against sporozoite-induced Plasmodium gallinaceum infected in white leghorn chicken assessed as disease cure from parasite infection at 30 mg/kg, sc administered 72 hrs after infection; assay type: functional, organism-based; design: dose 30 mg/kg
Staphylococcus aureus [39] = test: Antibacterial activity against drug-resistant Staphylococcus aureus S18713 by gradient plate test; assay type: functional
Staphylococcus aureus [40] = test: Antibacterial activity against Staphylococcus aureus UC-96 by gradient plate test; assay type: functional
Plasmodium gallinaceum [41] = test: Antimalarial activity against sporozoite-induced Plasmodium gallinaceum infected in white leghorn chicken assessed as disease cure from parasite infection at 60 mg/kg, sc administered 72 hrs after infection; assay type: functional, organism-based; design: dose 60 mg/kg
Plasmodium berghei [42] = test: Antimalarial activity against Plasmodium berghei infected in mouse assessed as disease cure from parasite infection at 10 mg/kg, sc administered 72 hrs after infection; assay type: functional, organism-based; design: dose 10 mg/kg
Plasmodium gallinaceum [43] = test: Antimalarial activity against sporozoite-induced Plasmodium gallinaceum infected in white leghorn chicken assessed as disease cure from parasite infection at 120 mg/kg, sc administered 72 hrs after infection; assay type: functional, organism-based; design: dose 120 mg/kg
Shigella sonnei = test: Antibacterial activity against Shigella sonnei C-10 by gradient plate test; assay type: functional

CCc1nc(N)nc(N)c1-c1ccc(Cl)cc1 [PYRIMETHAMINE]
SD90 (Plasmodium berghei [1]): 0.28 mg/kg/day | Activity (Mus musculus [2]): Toxic | Activity (Plasmodium gallinaceum [3]): Active | MST (Plasmodium berghei [4]): 6.1 days | Activity (Plasmodium gallinaceum [5]): Active | MST (Plasmodium berghei [6]): 7.7 days | Activity (Plasmodium berghei [7]): Active | Activity (Plasmodium gallinaceum [8]): Active | Activity (Plasmodium berghei [9]): Active | Activity (Plasmodium berghei [10]): Active | Activity (Gallus gallus [11]): Toxic | Activity (Plasmodium berghei [12]): Active | MST (Plasmodium berghei [13]): 5.3 days | Activity (Plasmodium gallinaceum [14]): Active | Activity (Mus musculus [15]): Toxic | Activity (Plasmodium gallinaceum [16]): Active | Activity (Plasmodium berghei [17]): Active | MST (Plasmodium berghei [18]): 3.1 days | MST (Plasmodium berghei [19]): 4.7 days | Activity (Plasmodium gallinaceum [20]): Active | Ratio (Plasmodium berghei [21]): 270

CN(Cc1ccc(Cl)c(Cl)c1)c1ccc2nc(N)nc(N)c2c1
Activity (Gallus gallus [22]): Toxic | MST (Plasmodium berghei [4]): 7.5 days | MST (Plasmodium berghei [6]): 14.9 days | MST (Plasmodium gallinaceum [23]): 1.4 days | MST (Plasmodium gallinaceum [24]): 6 days | MST (Plasmodium gallinaceum [25]): 21 days | MST (Plasmodium gallinaceum [26]): 7.4 days | MST (Plasmodium berghei [13]): 2.9 days | MST (Plasmodium gallinaceum [27]): 10.6 days | MST (Plasmodium gallinaceum [28]): 20.6 days | MST (Plasmodium gallinaceum [29]): 6.8 days | MST (Plasmodium gallinaceum [30]): 15.6 days | MST (Plasmodium berghei [18]): 0.3 days | MST (Plasmodium berghei [19]): 1.5 days

Nc1nc(N)c2cc(Sc3ccc(Br)cc3)ccc2n1
SD90 (Plasmodium berghei [1]): 1.2 mg/kg/day | MST (Plasmodium berghei [4]): 19.6 days | MIC (Escherichia coli): 1 µg/mL (≈ 2.88 µM) | Activity (Plasmodium berghei [31]): Active | MST (Plasmodium berghei [6]): 14.4 days | Activity (Plasmodium berghei [7]): Active | Activity (Plasmodium berghei [32]): inactive | Activity (Plasmodium gallinaceum [33]): Active | Activity (Plasmodium berghei [34]): Active | MST (Plasmodium gallinaceum [23]): 3 days | MST (Plasmodium gallinaceum [24]): 6 days | Activity (Plasmodium berghei [9]): Active | Activity (Plasmodium berghei [10]): Active | Activity (Plasmodium berghei [12]): Active | MST (Plasmodium gallinaceum [26]): 8.2 days | Activity (Plasmodium gallinaceum [35]): Active | MST (Plasmodium berghei [13]): 6.7 days | MST (Plasmodium gallinaceum [27]): 11.8 days | Activity (Plasmodium gallinaceum [36]): Active | MIC (Pseudomonas aeruginosa): > 25 µg/mL | MIC (Enterococcus faecalis): < 0.25 µg/mL | Activity (Plasmodium gallinaceum [37]): Active | Activity (Plasmodium gallinaceum [38]): Active | MIC (Staphylococcus aureus [39]): < 0.25 µg/mL | MIC (Staphylococcus aureus [40]): < 0.25 µg/mL | Activity (Plasmodium gallinaceum [41]): Active | Activity (Plasmodium berghei [42]): Active | MST (Plasmodium gallinaceum [29]): 7.2 days | MST (Plasmodium gallinaceum [30]): 12.8 days | Activity (Plasmodium berghei [17]): Active | MST (Plasmodium berghei [18]): 2.2 days | Activity (Plasmodium gallinaceum [43]): Active | MIC (Shigella sonnei): 2 µg/mL (≈ 5.76 µM) | MST (Plasmodium berghei [19]): 3.6 days | Ratio (Plasmodium berghei [21]): 62
